Results: patent US20150374718A1, “Zhankuic Acid A and Analogs thereof and Their Use as an Anti-Inflammatory Agent” (National Cheng Kung University, priority 2014, published 2015)

Columns and labels:
recombinant human MD-2 = target: T1, recombinant human MD-2 (Homo sapiens, UniProt Q9Y6Y9); assay: Native PAGE binding analysis with anti-MD-2 antibodies; details: MD-2 0.15 μg, 3 h at 37° C.
T1 construct: purchased R&D
T1 sequence (Q9Y6Y9 19-160): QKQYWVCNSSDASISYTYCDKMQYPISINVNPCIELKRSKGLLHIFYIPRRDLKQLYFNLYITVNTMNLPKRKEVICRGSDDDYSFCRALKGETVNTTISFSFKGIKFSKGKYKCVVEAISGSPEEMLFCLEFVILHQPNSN
Text: FIG. 2. ZAA interacts with the hydrophobic binding pocket of MD-2. […] The amino acids G1y110-Asn158 shown in magenta, which reside within the immunogenic peptide fragment of MD-2 amino acids 110-160, are around the ZAA-binding site in the ribbon model of MD-2. Gly110 and Asn158 are indicated by arrows. (B) Interactions involved in the binding of ZAA to the hydrophobic amino acid residues within the MD-2 binding pocket are shown. […] Similar results were obtained in three independent experiments.
Samples were subjected to native PAGE, and the levels of TLR4-associated or free MD-2 were detected by immunoblotting with two anti-MD-2 antibodies, rabbit polyclonal antibody against MD-2 amino acids 110-160 (abcam, Cambridge, Mass.) and mouse monoclonal antibody against MD-2 amino acids 2-160 (abcam). Signals were detected via ECL.

[1] = tested on: S. choleraesuis-induced TNF-α and IL-6 production; assay: ELISA of cytokines in S. choleraesuis-treated RAW264.7 cells; assay type: cell-based, murine; details: ZAA 1 h, 2×10^3 CFU/well

C=C(CC[C@@H](C)[C@H]1CC[C@H]2C3=C(C(=O)C[C@]12C)[C@@]1(C)CCC(=O)[C@@H](C)[C@@H]1CC3=O)C(C)C(=O)O (stereo partly drawn) [No. 1, Zhankuic acid A]
recognition of anti-MD-2 antibodies (aa 110-160 and 2-160) to native MD-2 (recombinant human MD-2): reduced the recognition of both antibodies to native MD-2 | S. choleraesuis-induced TNF-α production ([1]; 4 h): effectively suppressed | S. choleraesuis-induced IL-6 production ([1]; 6 h): effectively suppressed
